For orientation: EC50 means the concentration giving half of the maximal effect. Low readings indicate an effect from little substance, high ones a need for much substance. Usually inhibition stands for how much of the control response was suppressed.

The structures appear in SMILES notation. A value given as a limit tells only on which side of the number the result lay.

This experiment deals with IL-6 (THP-1 cells). Briefly: Inhibition of IL-6 in LPS-stimulated THP-1 monocytes (HTRF). In kind it is cell-based. The settings on record: Homo sapiens; for EC50: LPS 500 ng/mL, IL-6 by HTRF; for inhibition at 10 µM: LPS stimulated, IL-6, at 10 μM, read-out: percent inhibition at 10 μM (given for EC50 of >10 μM). In short, it runs like this:
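IL-6 release was read as the HTRF 665/620 nm ratio after 22 h of 500 ng/mL LPS at 37 °C. Before stimulation, THP-1 cells kept 24 h in 1% FBS were exposed 2 h to a 10-point 1:3 compound series starting at 10 μM, in 0.1% DMSO. Four-parameter EC50s came from DMSO-normalized duplicates, with % inhibition at 10 μM reported beyond 10 μM.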
(In TR-FRET formats the signal depends on donor and acceptor labels being close together.)

With `Cc1cn(-c2ccnc3[nH]c(-c4n[nH]c5ccc(-c6cncc(OCCN(C)C)c6)nc45)nc23)cn1` [Compound 627, N,N-Dimethyl-2-((5-(3-(7-(4-methyl-1H-imidazol-1-yl)-3H-imidazo[4,5-b]pyridin-2-yl)-1H-pyrazolo[4,3-b]pyridin-5-yl)pyridin-3-yl)oxy)ethan-1-amine], the EC50 is 0.404 µM.

Turning to `CN1CCN(c2ccnc3[nH]c(-c4n[nH]c5ccc(-c6cncc(OC7CCCCC7)c6)nc45)nc23)CC1` [Compound 639, 5-(5-(Cyclohexyloxy)pyridin-3-yl)-3-(7-(4-methylpiperazin-1-yl)-3H-imidazo[4,5-b]pyridin-2-yl)-1H-pyrazolo[4,3-b]pyridine], the EC50 was more than 10 µM and the inhibition at 10 µM worked out at 33.5%.

In the case of `CN1CCN(c2ccnc3[nH]c(-c4n[nH]c5ccc(-c6cnccn6)nc45)nc23)CC1` [Compound 648, 3-(7-(4-Methylpiperazin-1-yl)-3H-imidazo[4,5-b]pyridin-2-yl)-5-(pyrazin-2-yl)-1H-pyrazolo[4,3-b]pyridine], the half-maximal effective concentration (EC50) is more than 10 µM and the inhibition at 10 µM was found to be 9.9%.

For `c1cnc2[nH]c(-c3n[nH]c4ccc(-c5cn[nH]c5)nc34)nc2c1` [Compound 651, 3-(3H-Imidazo[4,5-b]pyridin-2-yl)-5-(1H-pyrazol-4-yl)-1H-pyrazolo[4,3-b]pyridine], the EC50 was more than 10 µM and the inhibition at 10 µM is 0%.

Take `c1cnc2[nH]c(-c3n[nH]c4ccc(-c5cncc(OC6CCNCC6)c5)nc34)nc2c1` [Compound 656, 3-(3H-Imidazo[4,5-b]pyridin-2-yl)-5-(5-(piperidin-4-yloxy)pyridin-3-yl)-1H-pyrazolo[4,3-b]pyridine]: the response was half-maximal at 7.6 µM (EC50).

Turning to `Oc1cncc(-c2ccc3[nH]nc(-c4nc5cccnc5[nH]4)c3n2)c1` [Compound 661, 5-(3-(3H-Imidazo[4,5-b]pyridin-2-yl)-1H-pyrazolo[4,3-b]pyridin-5-yl) pyridin-3-ol], the EC50 was more than 10 µM and the inhibition at 10 µM came to 27.9%.

Consider `O=C(CC1CCNCC1)Nc1cncc(-c2ccc3[nH]nc(-c4nc5c(-c6ccsc6)ccnc5[nH]4)c3n2)c1` [Compound 673, 2-(Piperidin-4-yl)-N-(5-(3-(7-(thiophen-3-yl)-3H-imidazo[4,5-b]pyridin-2-yl)-1H-pyrazolo[4,3-b]pyridin-5-yl)pyridin-3-yl)acetamide], for which the EC50 was more than 10 µM and the inhibition at 10 µM was 35.9%.

As for `Cc1ncc(-c2ccc3[nH]nc(-c4nc5c(-c6ccoc6)ccnc5[nH]4)c3n2)n1C` [Compound 685, 5-(1,2-Dimethyl-1H-imidazol-5-yl)-3-(7-(furan-3-yl)-3H-imidazo[4,5-b]pyridin-2-yl)-1H-pyrazolo[4,3-b]pyridine], the EC50 was more than 10 µM and the inhibition at 10 µM turned out to be 24.3%.

On to `c1cc(-c2ccoc2)c2nc(-c3n[nH]c4ccc(-c5cncc(OCCN6CCCC6)c5)nc34)[nH]c2n1` [Compound 690, 3-(7-(Furan-3-yl)-3H-imidazo[4,5-b]pyridin-2-yl)-5-(5-(2-(pyrrolidin-1-yl)ethoxy)pyridin-3-yl)-1H-pyrazolo[4,3-b]pyridine], for which the EC50 was more than 10 µM and the inhibition at 10 µM worked out at 42.9%.

Consider `COc1cncc(-c2ccc3[nH]nc(-c4nc5c(-c6ccoc6)ccnc5[nH]4)c3n2)c1` [Compound 692, 3-(7-(Furan-3-yl)-3H-imidazo[4,5-b]pyridin-2-yl)-5-(5-methoxypyridin-3-yl)-1H-pyrazolo[4,3-b]pyridine], for which the EC50 was more than 10 µM and the inhibition at 10 µM turned out to be 39%.

On to `Cn1cc(-c2ccc3[nH]nc(-c4nc5c(-c6cccs6)ccnc5[nH]4)c3n2)cn1` [Compound 700, 5-(1-Methyl-1H-pyrazol-4-yl)-3-(7-(thiophen-2-yl)-3H-imidazo[4,5-b]pyridin-2-yl)-1H-pyrazolo[4,3-b]pyridine], for which the EC50 is more than 10 µM and the inhibition at 10 µM stood at 0%.

On to `CN(C)CCOc1cncc(-c2ccc3[nH]nc(-c4nc5c(-c6cccs6)ccnc5[nH]4)c3n2)c1` [Compound 707, N,N-Dimethyl-2-((5-(3-(7-(thiophen-2-yl)-3H-imidazo[4,5-b]pyridin-2-yl)-1H-pyrazolo[4,3-b]pyridin-5-yl)pyridin-3-yl)oxy)ethan-1-amine], for which the EC50 was more than 10 µM and the inhibition at 10 µM is 35.1%.

For the compound `Cc1ccc(-c2ccnc3[nH]c(-c4n[nH]c5ccc(-c6cncc(OC7CCCCC7)c6)nc45)nc23)s1` [Compound 735, 5-(5-(Cyclohexyloxy)pyridin-3-yl)-3-(7-(5-methylthiophen-2-yl)-3H-imidazo[4,5-b]pyridin-2-yl)-1H-pyrazolo[4,3-b]pyridine], the response was half-maximal at 1.79 µM (EC50).

As for `Cn1cc(-c2ccc3[nH]nc(-c4nc5c(-c6cc(F)cc(CNS(C)(=O)=O)c6)ccnc5[nH]4)c3n2)cn1` [Compound 764, N-(3-Fluoro-5-(2-(5-(1-methyl-1H-pyrazol-4-yl)-1H-pyrazolo[4,3-b]pyridin-3-yl)-3H-imidazo[4,5-b]pyridin-7-yl)benzyl)methanesulfonamide], the EC50 was more than 10 µM and the inhibition at 10 µM stood at 24.2%.

With `CS(=O)(=O)NCc1cc(F)cc(-c2ccnc3[nH]c(-c4n[nH]c5ccc(-c6cncc(NC(=O)CC7CCNCC7)c6)nc45)nc23)c1` [Compound 769, N-(5-(3-(7-(3-Fluoro-5-(methylsulfonamidomethyl)phenyl)-3H-imidazo[4,5-b]pyridin-2-yl)-1H-pyrazolo[4,3-b]pyridin-5-yl)pyridin-3-yl)-2-(piperidin-4-yl)acetamide], the EC50 worked out at 0.036 µM.

As for `CN(C)CCNc1cc(F)cc(-c2ccnc3[nH]c(-c4n[nH]c5ccc(-c6cncc(OCCN7CCCC7)c6)nc45)nc23)c1` [Compound 786, N^1-(3-Fluoro-5-(2-(5-(5-(2-(pyrrolidin-1-yl)ethoxy)pyridin-3-yl)-1H-pyrazolo[4,3-b]pyridin-3-yl)-3H-imidazo[4,5-b]pyridin-7-yl)phenyl)-N^2,N^2-dimethylethane-1,2-diamine], the EC50 was more than 10 µM and the inhibition at 10 µM was found to be 0%.

As for `CN(C)CCNc1cc(F)cc(-c2ccnc3[nH]c(-c4n[nH]c5ccc(-c6cnccn6)nc45)nc23)c1` [Compound 792, N^1-(3-Fluoro-5-(2-(5-(pyrazin-2-yl)-1H-pyrazolo[4,3-b]pyridin-3-yl)-3H-imidazo[4,5-b]pyridin-7-yl)phenyl)-N^2,N^2-dimethylethane-1,2-diamine], the EC50 is more than 10 µM and the inhibition at 10 µM came out at 23.3%.

For `COc1cccc(-c2ccnc3[nH]c(-c4n[nH]c5ccc(-c6cncc(OC7CCNCC7)c6)nc45)nc23)c1` [Compound 1025, 3-(7-(3-Methoxyphenyl)-3H-imidazo[4,5-b]pyridin-2-yl)-5-(5-(piperidin-4-yloxy)pyridin-3-yl)-1H-pyrazolo[4,3-b]pyridine], the EC50 is more than 10 µM and the inhibition at 10 µM worked out at 26.5%.

On to `COc1cccc(-c2ccnc3[nH]c(-c4n[nH]c5ccc(-c6cncc(O)c6)nc45)nc23)c1` [Compound 1030, 5-(3-(7-(3-Methoxyphenyl)-3H-imidazo[4,5-b]pyridin-2-yl)-1H-pyrazolo [4,3-b]pyridin-5-yl)pyridin-3-ol], for which the EC50 is more than 10 µM and the inhibition at 10 µM is 40.9%.

For `c1cc(-c2ccc3c(c2)OCO3)c2nc(-c3n[nH]c4ccc(C5CCNCC5)nc34)[nH]c2n1` [Compound 1108, 3-(7-(Benzo[d][1,3]dioxol-5-yl)-3H-imidazo[4,5-b]pyridin-2-yl)-5-(piperidin-4-yl)-1H-pyrazolo[4,3-b]pyridine], the EC50 was more than 10 µM and the inhibition at 10 µM worked out at 30.1%.

In the case of `C1=C(c2ccc3[nH]nc(-c4nc5c(-c6ccc7c(c6)OCO7)ccnc5[nH]4)c3n2)CCNC1` [Compound 1109, 3-(7-(Benzo[d][1,3]dioxol-5-yl)-3H-imidazo[4,5-b]pyridin-2-yl)-5-(1,2,3,6-tetrahydropyridin-4-yl)-1H-pyrazolo[4,3-b]pyridine], the EC50 was more than 10 µM and the inhibition at 10 µM stood at 20.5%.

`Cn1cc(-c2ccc3[nH]nc(-c4nc5c(-c6ccc(F)cc6)ccnc5[nH]4)c3n2)c(CO)n1` [Compound 1129, (4-(3-(7-(4-Fluorophenyl)-3H-imidazo[4,5-b]pyridin-2-yl)-1H-pyrazolo[4,3-b]pyridin-5-yl)-1-methyl-1H-pyrazol-3-yl)methanol]: the EC50 is more than 10 µM and the inhibition at 10 µM was 24.8%.

For `Cn1cc(-c2ccc3[nH]nc(-c4nc5c(N6CCCCC6)ccnc5[nH]4)c3n2)c(CO)n1` [Compound 1134, (1-Methyl-4-(3-(7-(piperidin-1-yl)-3H-imidazo[4,5-b]pyridin-2-yl)-1H-pyrazolo[4,3-b]pyridin-5-yl)-1H-pyrazol-3-yl)methanol], the EC50 was more than 10 µM and the inhibition at 10 µM stood at 12.6%.

On to `Cn1cc(-c2ccc3[nH]nc(-c4nc5c(-c6ccc7c(c6)OCO7)ccnc5[nH]4)c3n2)c(CO)n1` [Compound 1152, (4-(3-(7-(Benzo[d][1,3]dioxol-5-yl)-3H-imidazo[4,5-b]pyridin-2-yl)-1H-pyrazolo[4,3-b]pyridin-5-yl)-1-methyl-1H-pyrazol-3-yl)methanol], for which the EC50 was more than 10 µM and the inhibition at 10 µM worked out at 28.4%.

The record behind these values is patent US10329309B2, “3-(3H-imidazo[4,5-B]pyridin-2-yl)-1H-pyrazolo[4,3-B]pyridines and therapeutic uses thereof” (Samumed, LLC, priority 2015, dated 2019).
